This note sets out measurements from patent US6730660B2, “Peritoneal dialysis solutions with polypeptides” (Baxter International Inc., priority 1992, dated 2004).

The subject of the data set is albino guinea pigs. Briefly: Dermal sensitization study: intradermal induction with Freund's Complete Adjuvant, then intradermal challenge. Format: in vivo, guinea pig.

Experimental: The study was conducted using 10 test animals and four naive control animals per test or positive control material. On Day 1, animals in each test group received duplicate 0.05-mL intradermal injections of a 1:1 ratio of Freund's Complete Adjuvant in sterile water, the respective test material, and a 1:1 ratio of the respective test material in Freund's Complete Adjuvant.
For the positive control group, the animals received duplicate 0.05-mL intradermal injections of a 1:1 ratio of Freund's Complete Adjuvant in sterile water, a 5% w/v suspension of sulfathiazole in sterile water, and a 5% w/v suspension of sulfathiazole in Freund's Complete Adjuvant.
On day 7, animals in all three test groups and the positive control group were pretreated with 10% w/w sodium lauryl sulfate in petrolatum applied topically at the shaved area of the Day 1 intradermal injections. On Day 8, the respective test or positive control material was injected intradermally at a volume of 0.05 mL into two separate areas located just posterior to the initial intradermal injections.
All the test materials were administered undiluted and the positive control was administered as a 5% w/v suspension of sulfathiazole in sterile water. All naive control animals were not treated during the induction phase.
Two weeks following the Day 8 intradermal injections, all animals in the respective test and naive control groups received a challenge intradermal injection. The respective undiluted test material was injected intradermally at a volume of 0.05-mL into one site on the shaved right flank of each respective animal. The positive control animals were treated with a 1% w/v suspension of sulfathiazole in sterile 0.9% saline. The sites were examined for erythema and edema at 24, 48, and 72 hours following injection.
Young adult albino guinea pigs, Hra:(DH)SPF, were procured, maintained individually in screen-bottom stainless steel cages in temperature- and humidity-controlled rooms, provided continuous access to Certified Guinea Pig Chow® 5026, Purina Mills, Inc., and water and held for an acclimation period of at least 7 days. If variations from the prescribed environmental conditions existed, they were documented and considered to have no effect on the study outcome. No contaminants were expected to have been present in the feed or water which would have interfered with or affected the results of the study.
Intradermal Injections (Day 1) A 4-cm×6-cm area was clipped along the midline over the shoulder region of each animal in the test and positive control groups. Six intradermal injections were made within the boundaries of a 2-cm×4-cm area, one row of three injections on each side of the midline as follows: […]

Consider `Nc1ccc(S(=O)(=O)Nc2nccs2)cc1` [Sulfathiazole], for which the “dermal reactions at challenge” value (Day 22 intradermal challenge 0.05 mL, examined at 24, 48 and 72 hours) is reported as “Dermal sensitization responses were observed”. The “body weight loss of one animal” value (animal E17221, Group 11, third week of the study) is on record as 76 g. Also, where the note is “guinea pig, after intradermal challenge”, the “Classification (sensitizer)” value is recorded as “Sensitizer”. For the same molecule, the “# of Positive Reactions/# in Group” value (test or positive control groups, after intradermal challenge) was 9/10.
